These results are taken from patent publication US10882837B2, “Amide compounds and use thereof” (ALPHALA CO., LTD., priority 2017, dated 2021).

One may read the IC50 as the concentration that inhibits the measured activity by half.

One test addresses T1, glucagon receptor (GCGR) (Homo sapiens, UniProt P47871).
T1 construct: expressed in transfected cells; host or cells: CHO-K1
The test can be described thus: Glucagon cAMP inhibition assay (Cisbio cAMP Dynamic 2 HTRF). Format: cell-based. To be noted: GCGR overexpressed CHO-K1 cells or human primary hepatocytes (not specified); glucagon at EC50. The method, boiled down: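 GCGR-overexpressing CHO-K1 cells or human primary hepatocytes in HBSS with 0.1% BSA and 800 nM IBMX, pre-incubated 30 min with compound (1% DMSO final), then stimulated 30 min at room temperature with glucagon at its EC50. cAMP measured by HTRF after 60 min lysis; IC50 from non-linear regression.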
(In TR-FRET formats the signal depends on donor and acceptor labels being close together.)

A further test deals with GCGR (Homo sapiens, UniProt P47871). The experiment in a line: I125-glucagon binding assay (competition, GCGR membrane fractions). Also on record: expressed in transfected cells; host or cells: CHO-K1. To be noted: competition with I125-glucagon 0.0625 nM; membrane fractions from GCGR overexpressed CHO-K1 cells. The method, boiled down:
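Membranes from CHO-K1 cells overexpressing GCGR (7.5 µg/well) were preincubated 5 min with serially diluted compound in 50 mM Tris pH 7.4, 0.5% BSA. I125-glucagon was then added at 0.0625 nM final and incubated 30 min at 25 °C. After filtration, bound radioactivity was counted and IC50 derived by non-linear regression.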

Chain of GCGR (P47871 26-477, species assumed): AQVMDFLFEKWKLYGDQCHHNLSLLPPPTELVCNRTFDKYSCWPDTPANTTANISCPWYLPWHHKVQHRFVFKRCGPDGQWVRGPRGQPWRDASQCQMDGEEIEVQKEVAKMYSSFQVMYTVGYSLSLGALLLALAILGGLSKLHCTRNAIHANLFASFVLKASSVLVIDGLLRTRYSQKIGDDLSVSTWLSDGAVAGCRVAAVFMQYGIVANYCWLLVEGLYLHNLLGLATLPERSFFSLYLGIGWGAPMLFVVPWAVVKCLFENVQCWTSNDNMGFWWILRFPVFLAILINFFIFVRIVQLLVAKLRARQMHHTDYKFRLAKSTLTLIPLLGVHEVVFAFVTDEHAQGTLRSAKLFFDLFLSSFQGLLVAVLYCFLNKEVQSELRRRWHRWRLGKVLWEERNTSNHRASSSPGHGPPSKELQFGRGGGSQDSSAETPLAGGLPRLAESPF
T1 sequence (P47871 26-477, species assumed): as above

On to `CC(C)[C@@H](Nc1ccc(-c2nnc(-c3ccccc3)o2)cc1)c1ccc(C(=O)NCCC(=O)O)cc1` [Compound 3-15, (R)-3-(4-(2-methyl-1-(4-(5-phenyl-1,3,4-oxadiazol-2-yl)phenylamino)propyl)benzamido)propanoic acid], for which the IC50 amounted to 0.632 µM on glucagon receptor (GCGR) and 0.021 µM on GCGR.

For `CCOC(=O)CCNC(=O)c1ccc(NC(c2ccc(-c3nc4ccccc4o3)cc2)C(C)C)cc1` (stereo not shown) [Compound 4-1, ethyl 3-(4-((1-(4-(benzo[d]oxazol-2-yl)phenyl)-2-methylpropyl)amino)benzamido)propanoate], the figures for the IC50 on glucagon receptor (GCGR) and on GCGR were 0.0957 µM and 0.968 µM, respectively.

Take `CCCCC(Nc1ccc(C(=O)NCCC(=O)OCC)cc1)c1ccc(-c2nc3ccccc3o2)cc1` (stereo not shown) [Compound 4-2, ethyl 3-(4-((1-(4-(benzo[d]oxazol-2-yl)phenyl)pentyl)amino)benzamido)propanoate]: the results for the IC50 against glucagon receptor (GCGR) and at GCGR were 0.119 µM and 0.799 µM, respectively.

Turning to `CC(C)C(Nc1ccc(C(=O)NCCC(=O)O)cc1)c1ccc(-c2nc3ccccc3o2)cc1` (stereo not shown) [Compound 4-3, 3-(4-((1-(4-(benzo[d]oxazol-2-yl)phenyl)-2-methylpropyl)amino)benzamido)propanoic acid], the IC50 on glucagon receptor (GCGR) amounted to 2.22 µM; on GCGR, 0.034 µM.

Regarding `CCCCC(Nc1ccc(C(=O)NCCC(=O)O)cc1)c1ccc(-c2nc3ccccc3o2)cc1` (stereo not shown) [Compound 4-4, 3-(4-((1-(4-(benzo[d]oxazol-2-yl)phenyl)pentyl)amino)benzamido)propanoic acid], the IC50 was 1.08 µM on glucagon receptor (GCGR) and 0.101 µM on GCGR.

For `CCOC(=O)CCNC(=O)c1ccc(N[C@H](c2ccc(-c3nc4ccccc4o3)cc2)C(C)C)cc1` [Compound 4-5, ethyl (S)-3-(4-((1-(4-(benzo[d]oxazol-2-yl)phenyl)-2-methylpropyl)amino)benzamido)propanoate], the IC50 at glucagon receptor (GCGR) was 0.0265 µM; on GCGR it was 0.714 µM.

Take `CCOC(=O)CCNC(=O)c1ccc(N[C@@H](c2ccc(-c3nc4ccccc4o3)cc2)C(C)C)cc1` [Compound 4-6, ethyl (R)-3-(4-((1-(4-(benzo[d]oxazol-2-yl)phenyl)-2-methylpropyl)amino)benzamido)propanoate]: the IC50 at glucagon receptor (GCGR) is 0.124 µM; on GCGR, more than 3 µM.

On to `CC(C)[C@H](Nc1ccc(C(=O)NCCC(=O)O)cc1)c1ccc(-c2nc3ccccc3o2)cc1` [Compound 4-7, (S)-3-(4-((1-(4-(benzo[d]oxazol-2-yl)phenyl)-2-methylpropyl)amino)benzamido)propanoic acid], for which the IC50 amounted to 0.651 µM against glucagon receptor (GCGR) and 0.02 µM on GCGR.

In the case of `CC(C)[C@@H](Nc1ccc(C(=O)NCCC(=O)O)cc1)c1ccc(-c2nc3ccccc3o2)cc1` [Compound 4-8, (R)-3-(4-((1-(4-(benzo[d]oxazol-2-yl)phenyl)-2-methylpropyl)amino)benzamido)propanoic acid], the IC50 on glucagon receptor (GCGR) is 1.08 µM; at GCGR, 0.372 µM.

As for `CCCC[C@@H](Nc1ccc(C(=O)NCCC(=O)OCC)cc1)c1ccc(-c2nc3ccccc3o2)cc1` [Compound 4-9, ethyl (R)-3-(4-((1-(4-(benzo[d]oxazol-2-yl)phenyl)pentyl)amino)benzamido)propanoate], the values for the half-inhibitory concentration (IC50) on glucagon receptor (GCGR) and at GCGR were 0.186 µM and 0.602 µM, respectively.

Regarding `CCCC[C@@H](Nc1ccc(C(=O)NCCC(=O)O)cc1)c1ccc(-c2nc3ccccc3o2)cc1` [Compound 4-10], the IC50 against glucagon receptor (GCGR) was determined as 1.5 µM; at GCGR, 0.15 µM.

On to `CCOC(=O)CCNC(=O)c1ccc(N[C@@H](c2ccc(-c3nc4ccccc4o3)cc2)C2CCCC2)cc1` [Compound 4-11, ethyl (R)-3-(4-(((4-(benzo[d]oxazol-2-yl)phenyl)(cyclopentyl)methyl)amino)benzamido)propanoate], for which the IC50 against glucagon receptor (GCGR) stood at 0.237 µM; at GCGR, 0.755 µM.

With `O=C(O)CCNC(=O)c1ccc(N[C@@H](c2ccc(-c3nc4ccccc4o3)cc2)C2CCCC2)cc1` [Compound 4-12, (R)-3-(4-(((4-(benzo[d]oxazol-2-yl)phenyl)(cyclopentyl)methyl)amino)benzamido)propanoic acid], the values for the IC50 against glucagon receptor (GCGR) and on GCGR were 0.754 µM and 0.0238 µM, respectively.

Turning to `CCOC(=O)CCNC(=O)c1ccc(N[C@H](CC(C)C)c2ccc(-c3nc4ccccc4o3)cc2)cc1` [Compound 4-13, ethyl (R)-3-(4-((1-(4-(benzo[d]oxazol-2-yl)phenyl)-3-methylbutyl)amino)benzamido)propanoate], the IC50 was 0.361 µM against glucagon receptor (GCGR) and 31.6 µM on GCGR.

On to `CC(C)C[C@@H](Nc1ccc(C(=O)NCCC(=O)O)cc1)c1ccc(-c2nc3ccccc3o2)cc1` [Compound 4-14, (R)-3-(4-((1-(4-(benzo[d]oxazol-2-yl)phenyl)-3-methylbutyl)amino)benzamido)propanoic acid], for which the IC50 on glucagon receptor (GCGR) worked out at 0.917 µM; at GCGR it was 0.112 µM.

As for `CCCC[C@H](Nc1ccc(C(=O)NCCC(=O)OCC)cc1)c1ccc(-c2nc3ccccc3o2)cc1` [Compound 4-15, ethyl (S)-3-(4-((1-(4-(benzo[d]oxazol-2-yl)phenyl)pentyl)amino)benzamido)propanoate], the IC50 was determined as 0.043 µM on glucagon receptor (GCGR) and 0.35 µM at GCGR.

With `CCCC[C@H](Nc1ccc(C(=O)NCCC(=O)O)cc1)c1ccc(-c2nc3ccccc3o2)cc1` [Compound 4-16, (S)-3-(4-((1-(4-(benzo[d]oxazol-2-yl)phenyl)pentyl)amino)benzamido)propanoic acid], the IC50 against glucagon receptor (GCGR) stood at 0.785 µM; on GCGR, 0.036 µM.

Regarding `CCOC(=O)CCNC(=O)c1ccc(N[C@@H](CC(C)C)c2ccc(-c3nc4ccccc4o3)cc2)cc1` [Compound 4-17, ethyl (S)-3-(4-((1-(4-(benzo[d]oxazol-2-yl)phenyl)-3-methylbutyl)amino)benzamido)propanoate], the IC50 on glucagon receptor (GCGR) amounted to 0.096 µM; on GCGR, 0.745 µM.

Take `CC(C)C[C@H](Nc1ccc(C(=O)NCCC(=O)O)cc1)c1ccc(-c2nc3ccccc3o2)cc1` [Compound 4-18]: the IC50 against glucagon receptor (GCGR) was determined as 1.75 µM; on GCGR it was 0.083 µM.

Turning to `CCOC(=O)CCNC(=O)c1ccc(N[C@H](c2ccc(-c3nc4ccccc4o3)cc2)C(C)CC)cc1` (stereo partly drawn) [Compound 4-19, Ethyl 3-(4-(((1S)-1-(4-(benzo[d]oxazol-2-yl)phenyl)-2-methylbutyl)amino)benzamido)propanoate], the IC50 against glucagon receptor (GCGR) was found to be 0.052 µM; at GCGR, 0.446 µM.

For `CCC(C)[C@H](Nc1ccc(C(=O)NCCC(=O)O)cc1)c1ccc(-c2nc3ccccc3o2)cc1` (stereo partly drawn) [Compound 4-20, 3-(4-(((1S)-1-(4-(benzo[d]oxazol-2-yl)phenyl)-2-methylbutyl)amino)benzamido)propanoic acid], the IC50 on glucagon receptor (GCGR) is 0.984 µM; on GCGR it was 0.017 µM.

As for `CCOC(=O)CCNC(=O)c1ccc(N[C@@H](c2ccc(-c3nc4ccccc4o3)cc2)C(C)CC)cc1` (stereo partly drawn) [Compound 4-21, ethyl 3-(4-(((1R)-1-(4-(benzo[d]oxazol-2-yl)phenyl)-2-methylbutyl)amino)benzamido)propanoate], the IC50 on glucagon receptor (GCGR) was found to be 0.242 µM; on GCGR, 0.923 µM.

For the compound `CCC(C)[C@@H](Nc1ccc(C(=O)NCCC(=O)O)cc1)c1ccc(-c2nc3ccccc3o2)cc1` (stereo partly drawn) [Compound 4-22, 3-(4-(((1R)-1-(4-(benzo[d]oxazol-2-yl)phenyl)-2-methylbutyl)amino)benzamido)propanoic acid], the IC50 stood at 0.899 µM against glucagon receptor (GCGR) and 0.06 µM on GCGR.

Consider `CCOC(=O)CCNC(=O)c1ccc(N[C@H](c2ccc(-c3nc4ccccc4o3)cc2)C2CCCC2)cc1` [Compound 4-23, ethyl (S)-3-(4-(((4-(benzo[d]oxazol-2-yl)phenyl)(cyclopentyl)methyl)amino)benzamido)propanoate], for which the results for the IC50 against glucagon receptor (GCGR) and on GCGR were 0.065 µM and 0.308 µM, respectively.

Regarding `O=C(O)CCNC(=O)c1ccc(N[C@H](c2ccc(-c3nc4ccccc4o3)cc2)C2CCCC2)cc1` [Compound 4-24, (S)-3-(4-(((4-(benzo[d]oxazol-2-yl)phenyl)(cyclopentyl)methyl)amino)benzamido)propanoic acid], the IC50 at glucagon receptor (GCGR) was 0.862 µM; at GCGR it was 0.095 µM.

`CCOC(=O)CCNC(=O)c1ccc(N[C@H](c2ccc(-c3nc4ccccc4s3)cc2)C(C)C)cc1` [Compound 4-25, ethyl (S)-3-(4-((1-(4-(benzo[d]thiazol-2-yl)phenyl)-2-methylpropyl)amino)benzamido)propanoate]: the results for the IC50 against glucagon receptor (GCGR) and on GCGR were 0.0303 µM and 0.188 µM, respectively.

Turning to `CC(C)[C@H](Nc1ccc(C(=O)NCCC(=O)O)cc1)c1ccc(-c2nc3ccccc3s2)cc1` [Compound 4-26, (S)-3-(4-((1-(4-(benzo[d]thiazol-2-yl)phenyl)-2-methylpropyl)amino)benzamido)propanoic acid], the IC50 at glucagon receptor (GCGR) worked out at 1.02 µM; at GCGR, 0.0423 µM.

Turning to `CCOC(=O)CCNC(=O)c1ccc(N[C@H](c2ccc(-c3nc4ccccc4s3)cc2)C(C)C)nc1` [Compound 4-27, ethyl (S)-3-(6-((1-(4-(benzo[d]thiazol-2-yl)phenyl)-2-methylpropyl)amino)nicotinamido)propanoate], the IC50 against glucagon receptor (GCGR) was 0.0423 µM; at GCGR, 0.127 µM.

In the case of `CCOC(=O)CCNC(=O)c1ccc(N[C@H](c2ccc(-c3nc4ccccc4o3)cc2)C(C)C)nc1` [Compound 4-29, ethyl (S)-3-(6-((1-(4-(benzo[d]oxazol-2-methylpropyl)amino)nicotinamido propanoate], the IC50 amounted to 0.0534 µM on glucagon receptor (GCGR) and 0.285 µM at GCGR.
